In patent publication US20240034992A1, “DOPAMINERGIC NEURONS COMPRISING MUTATIONS AND METHODS OF USE THEREOF” (FUJIFILM Cellular Dynamics, Inc., priority 2021, published 2024):

Experiments:
[1] = system: GCase; assay: GCase activity assay after compound treatment, GBA (N370S) iPSC-derived DA neurons; assay type: cell-based, human; details: for GCase activity (mean±SD): chronic treatment (two weeks) 10 uM, DMSO=90302±3986
Description: The cells were harvested, lysed and centrifuged at 20,000×g for 20 min at 4° C. […] Recombinant human Glucosylceramidase/GBA (rhGBA) (R&D, 7410-GHB-020) was used as a positive control. Samples were incubated for 40 minutes at 37° C. and reaction stopped by adding equivolume 1M glycine, pH 12.5. 100 μl of reactions were loaded into white 96-well plates (Nunc, #136101) and fluorescence (ex=355 nm, em=460, 0.1 s) signal were measured in the CLARIOstar plate reader ([…]). Relative fluorescent units (RFUs) from non CBE-treated lysates were calculated by subtracting the signal from the corresponding CBE-treated lysates. […] DA neurons were cultured at high density (200,000/well) in the 96 well plates. Gcase activity was measured from DA neurons derived from GBA, LRRK2 and AHN iPSCs after compound treatment. […] Total protein in the lysate was quantified using Pierce BCA Protein Assay Kit (ThermoFisher). GCase activity can be used as a read out for compound screening with disease neurons where AHN serve as a control and compounds that could rescue the GCase activity would be considered a positive hit. […] Single compounds were tested both for acute exposure (3 days) and chronic exposure (two weeks).

[2] = molecular target: T1, GCase (Homo sapiens, UniProt P04062); assay: GCase activity assay after compound treatment, LRRK2 (G2019S) iPSC-derived DA neurons; assay type: cell-based; details: 10 uM for two weeks, day 21 post thaw
T1 construct: endogenous in cells; host or cells: DA neurons differentiated from LRRK2 patient, SNCA A53T engineered or AHN (healthy donor) iPSCs (lysate)
T1 sequence (P04062 40-536): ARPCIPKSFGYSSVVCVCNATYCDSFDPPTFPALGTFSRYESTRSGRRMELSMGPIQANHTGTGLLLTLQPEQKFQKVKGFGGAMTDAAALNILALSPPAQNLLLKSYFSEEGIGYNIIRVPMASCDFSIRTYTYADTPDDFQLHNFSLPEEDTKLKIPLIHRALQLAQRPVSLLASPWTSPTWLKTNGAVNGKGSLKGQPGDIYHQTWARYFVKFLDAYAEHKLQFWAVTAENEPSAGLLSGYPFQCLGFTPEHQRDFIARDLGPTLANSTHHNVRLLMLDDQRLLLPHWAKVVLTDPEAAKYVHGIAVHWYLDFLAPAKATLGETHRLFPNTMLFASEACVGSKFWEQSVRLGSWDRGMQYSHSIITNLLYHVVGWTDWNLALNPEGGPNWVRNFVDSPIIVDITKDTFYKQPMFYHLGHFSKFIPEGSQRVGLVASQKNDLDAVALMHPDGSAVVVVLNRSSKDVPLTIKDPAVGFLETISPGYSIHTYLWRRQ
Description: (§3) The cells were harvested, lysed and centrifuged at 20,000×g for 20 min at 4° C. […] Recombinant human Glucosylceramidase/GBA (rhGBA) (R&D, 7410-GHB-020) was used as a positive control. Samples were incubated for 40 minutes at 37° C. and reaction stopped by adding equivolume 1M glycine, pH 12.5. 100 μl of reactions were loaded into white 96-well plates (Nunc, #136101) and fluorescence (ex=355 nm, em=460, 0.1 s) signal were measured in the CLARIOstar plate reader (Molecular Devices). Relative fluorescent units (RFUs) from non CBE-treated lysates were calculated by subtracting the signal from the corresponding CBE-treated lysates. […] DA neurons were cultured at high density (200,000/well) in the 96 well plates. Gcase activity was measured from DA neurons derived from GBA, LRRK2 and AHN iPSCs after compound treatment. […] Total protein in the lysate was quantified using Pierce BCA Protein Assay Kit (ThermoFisher). […] Single compounds were tested both for acute exposure (3 days) and chronic exposure (two weeks).

[3] = molecular target: T1, GCase; assay: GCase activity assay after compound treatment, SNCA A53T iPSC-derived DA neurons; assay type: cell-based; details: 10 uM for two weeks, day 21 post thaw
Description: as §3

[4] = molecular target: T1, GCase; assay: GCase activity assay after compound treatment, AHN iPSC-derived DA neurons; assay type: cell-based; details: 10 uM for two weeks, day 21 post thaw, from 165052 (DMSO vehicle)
Description: as §3

[5] = system: LRRK2 DA neurons; assay: Calcium imaging (Ca oscillation, FDSS/μCELL) of DA neuron spheroids, LRRK2; assay type: cell-based, human
Description: (§1) For calcium imaging experiments, DA neurons were cultured as spheroids (50,000/well) in the 384 U bottom ULA plates (S-bio plates) and fed with Brainphys complete media (Brainphys basal media+neural supplement A+NSS). […] On day 14 post-plating (7 days post-treatment) cells were loaded with 1× EarlyTOX cardiotoxicity kit and after 2 hours of incubation at 37° C., Ca2+ oscillation captured using FDSS/μCELL instrument for 20 minutes. Waveform software was used for quantification of Ca oscillation and data were analyzed using GraphPad Prism.
(§2) Calcium oscillation traces of day 14 post plated DA neurons were captured using FDSS/μCELL instrument for 20 minutes. […] Calcium transient properties including (FIG. 13B) number of peaks, (FIG. 13C) peak rates per minute and (FIG. 13D) area under the curve/peak (average) were quantified for all wells (repeats) of each cell line using Waveform software.

[6] = system: SNCA DA neurons; assay: Calcium imaging (Ca oscillation, FDSS/μCELL) of DA neuron spheroids, SNCA; assay type: cell-based, human; details: 10 uM for one week
Description: as §1, §2

[7] = system: AHN DA neurons; assay: Calcium imaging (Ca oscillation, FDSS/μCELL) of DA neuron spheroids, AHN; assay type: cell-based, human; details: 10 uM for one week
Description: as §1, §2

What does the source list for Nc1c(Br)cc(Br)cc1CN[C@H]1CC[C@H](O)CC1 [Ambroxol]?
increase in Gcase activity ([1]; GBA neurons, 10 uM for two weeks, day 21 post thaw): 12%; increase in Gcase activity ([1]; combinatorial screen, GBA cells, chronic treatment 10 uM, compared to DMSO): 48%; GCase activity (mean±SD) ([1]; combinatorial screen, GBA cells): highest GCase activity; GCase activity (mean±SD) ([1]; combinatorial screen, GBA cells, listed as ABX): 133659±10542; increase in Gcase activity [2]: 18%; increase in Gcase activity [3]: 14%; Gcase activity (Mean) [4]: 171669; Peak rate (mean±SD) ([5]; LRRK2, 10 uM for one week, day 14 post plating, untreated 1.52±0.16): 1.89±0.18 peaks per minute; effect on Ca oscillation compared to the untreated AHN DA neurons ([5]; LRRK2 DA neurons, 10 uM for one week): caused hyperexcitability; effect on Ca oscillation compared to the untreated AHN DA neurons ([6]; SNCA DA neurons): caused hyperexcitability; number of peaks (mean±SD) ([6]; SNCA, day 14 post plating, 20 minutes, untreated 24.5±5.3): 33.8±1.5; Peak rate (mean±SD) ([6]; SNCA, day 14 post plating, untreated 1.26±0.3): 1.61±0.12 peaks per minute; effect on Ca oscillation compared to the untreated AHN DA neurons ([7]; AHN DA neurons): caused hyperexcitability; number of peaks (mean±SD) ([7]; AHN, day 14 post plating, 20 minutes, untreated 21.55±3): 33.75±7.14; Peak rate (mean±SD) ([7]; AHN, day 14 post plating, untreated 1.12±0.16): 1.74±0.32 peaks per minute
